Results as given in US10344019B2 (priority 2010, dated 2019).
Where two headings read alike, the source gives them in different places.

Key:
Assay type in all cases: cell-based
[1] = test system: HCV 2a Rluc cells (NS5A chimeric genotype 2a JFH-1 replicon with genotype 2a J6 strain NS5A gene, M31 present); test: HCV replicon reporter assay, genotype 2a J6 (M31 present); conditions: Hepatitis C virus, read-out: 2a J6
Method: Evaluation of cell-based anti-HCV activity: Antiviral potency (EC50) was determined using a Renilla luciferase (RLuc)-based HCV replicon reporter assay. To perform the assay for genotype 1 and 2a JFH-1, HCV 1b RLuc cells (harboring a dicistronic genotype 1b Con1 replicon that encodes a RLuc reporter), or HCV 1a RLuc cells (harboring a dicistronic genotype 1a H77 replicon that encodes a RLuc reporter), or HCV 2a JFH-1 Rluc cells (harboring a dicistronic genotype 2a JFH-1 replicon that encodes a RLuc reporter) were dispensed into 384-well plates. To perform the assay for genotype 2a (with M31 present) or 2b, HCV 2a Rluc or 2b Rluc cells (both with M31 present) harboring a dicistronic NS5A chimeric genotype 2a JFH-1 replicon that encodes a RLuc reporter and either genotype 2a J6 strain NS5A gene or genotype 2b MD2b-1 NS5A gene (based on Los Alamos HCV database isolates, both with M31 present) respectively, were dispensed into 384-well plates. To perform the assay for genotype 3 and 4, HCV 3a RLuc or 4a Rluc cells harboring a dicistronic NS5A chimeric genotype 1b Con1 replicon that encodes a RLuc reporter and either a consensus genotype 3a NS5A gene or genotype 4a NS5A gene (based on Los Alamos HCV database isolates) respectively, were dispensed into 384-well plates. Compounds were re-suspended in DMSO at a concentration of 10 mM and serially diluted in DMSO either manually or using an automated pipeting instrument. Serially diluted compounds were mixed with cell culture media and added to the seeded cells. […] 72 hours later, cells were lysed and Renilla luciferase activity quantified as recommended by the manufacturer (Promega-Madison, Wis.). Non-linear regression was performed to calculate EC50 values.

[2] = test system: HCV 1b RLuc cells (dicistronic genotype 1b Con1 replicon, RLuc reporter); test: microbe, parasite or virus in culture
Summary of the method: (§1)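 Replicon cells stably carrying the listed RLuc-encoding dicistronic replicons were seeded and treated with DMSO serial dilutions of compound (10 mM stocks) diluted into culture medium. After 72 h, cells were lysed and Renilla luciferase activity measured. EC50 was derived by non-linear regression.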

[3] = test system: HCV 3a RLuc cells (NS5A chimeric genotype 1b Con1 replicon with consensus genotype 3a NS5A gene); test: microbe, parasite or virus in culture
Summary of the method: as §1

[4] = test system: HCV 4a Rluc cells (NS5A chimeric genotype 1b Con1 replicon with genotype 4a NS5A gene); test: microbe, parasite or virus in culture; conditions: read-out: 4a
Summary of the method: as §1

[5] = test system: HCV 2a JFH-1 Rluc cells (dicistronic genotype 2a JFH-1 replicon, RLuc reporter); test: microbe, parasite or virus in culture; conditions: genotype 2a JFH-1 replicon, read-out: 2a JFH
Summary of the method: as §1

[6] = test system: HCV 1a RLuc cells (dicistronic genotype 1a H77 replicon, RLuc reporter); test: microbe, parasite or virus in culture; conditions: read-out: 1a
Summary of the method: as §1

[7] = Hepatitis C virus, read-out: 1b (nM)
[8] = Hepatitis C virus, read-out: 3a, genotype 3a replicon
[9] = Hepatitis C virus, genotype 1a replicon
[10] = Hepatitis C virus, read-out: 3a, genotype 3a NS5A chimeric 1b Con1 replicon
[11] = Hepatitis C virus, RLuc reporter
[12] = Hepatitis C virus, genotype 1a H77 replicon, RLuc reporter
[13] = Hepatitis C virus, 72 h, read-out: 1b (nM)
[14] = Hepatitis C virus, read-out: 3a, Table 2, genotype 3a NS5A chimeric replicon
[15] = Hepatitis C virus, 72 h, Table 2, 72 hours
[16] = Hepatitis C virus, 72 h, Table 2, genotype 1a H77 replicon, 72 hours
[17] = Hepatitis C virus, read-out: 3a, Table 1, genotype 3a NS5A chimeric replicon
[18] = Hepatitis C virus, 72 h, Table 1, 72 hours
[19] = Hepatitis C virus, 72 h, Table 1, genotype 1a H77 replicon, 72 hours

SMILES | EC50 [2, 7] | EC50 [3, 8] | EC50 ([4]; Hepatitis C virus) | EC50 ([5]; Hepatitis C virus) | EC50 [6, 9] | EC50 [3, 10] | EC50 [5, 11] | EC50 [6, 12] | other results
COC(=O)N[C@H](C(=O)N1CCC[C@H]1c1nnc(-c2ccc(-c3ccc4c(ccc5nc([C@@H]6CCCN6C(=O)[C@@H](NC(=O)OC)C(C)C)[nH]c54)c3)cc2)[nH]1)C(C)C [Example 407] | 0.048 nM | 1 to 4.99 nM | 0.001 to 0.99 nM | 0.001 to 0.999 nM | 0.001 to 0.999 nM | – | – | – | EC50 [1]: > 44 nM
COC(=O)N[C@H](C(=O)N1CCC[C@H]1c1nc2ccc(-c3ccc4c(c3)C(F)(F)c3cc(-c5c[nH]c([C@@H]6CCCN6C(=O)[C@H](NC(=O)OC)c6ccccc6)n5)ccc3-4)cc2[nH]1)C(C)C [Example 217] | 0.009 nM | – | 0.001 to 0.99 nM | – | – | 0.001 to 0.99 nM | 0.001 to 0.999 nM | 0.001 to 0.999 nM | –
COC(=O)N[C@H](C(=O)N1CCC[C@H]1c1nc2ccc3cc(-c4ccc5cc(-c6cnc([C@@H]7CCCN7C(=O)[C@H](NC(=O)OC7COC7)c7ccccc7)[nH]6)ccc5c4)ccc3c2[nH]1)C(C)C [Example 289] | 0.01 nM | – | 0.001 to 0.99 nM | – | – | 0.001 to 0.99 nM | 0.001 to 0.999 nM | 0.001 to 0.999 nM | –
COC(=O)N[C@H](C(=O)N1CCC[C@H]1c1ncc(-c2ccc3cc(-c4ccc(-c5cnc([C@@H]6CC7(CN6C(=O)[C@H](NC(=O)OC)c6ccccc6)OCCO7)[nH]5)cc4)ccc3c2)[nH]1)C1CCOCC1 [Example 47] | – | – | 0.001 to 0.99 nM | – | – | – | – | – | EC50 [2, 13]: 0.037 nM; EC50 [3, 14]: 1 to 4.99 nM; EC50 [5, 15]: 0.001 to 0.999 nM; EC50 [6, 16]: 0.001 to 0.999 nM
COC(=O)N[C@H](C(=O)N1[C@@H]2CC[C@@H](C2)[C@H]1c1nc2ccc3cc(-c4ccc(-c5cnc([C@@H]6C[C@H]7C[C@H]7N6C(=O)[C@@H](NC(=O)OC)C(C)C)[nH]5)cc4)ccc3c2[nH]1)C(C)C [Example 340] | 0.013 nM | 0.001 to 0.99 nM | 0.001 to 0.99 nM | 0.001 to 0.999 nM | 0.001 to 0.999 nM | – | – | – | –
COC(=O)N[C@H](C(=O)N1CCC[C@H]1c1ncc(-c2ccc(-c3ccc4c(ccc5nc([C@@H]6SCCN6C(=O)[C@@H](NC(=O)OC)C(C)C)[nH]c54)c3)cc2)[nH]1)C(C)C [Example 333] | 0.646 nM | 1 to 4.99 nM | 0.001 to 0.99 nM | 0.001 to 0.999 nM | 1 to 44 nM | – | – | – | –
CC#Cc1cc(-c2cnc([C@@H]3CCCN3C(=O)[C@@H](NC(=O)OC)C(C)C)[nH]2)ccc1-c1ccc(-c2cnc([C@@H]3CCCN3C(=O)[C@@H](NC(=O)OC)C3CCOCC3)[nH]2)cc1 [Example 347] | 0.055 nM | 0.001 to 0.99 nM | 0.001 to 0.99 nM | 0.001 to 0.999 nM | 0.001 to 0.999 nM | – | – | – | –
COC(=O)N[C@H](C(=O)N1CCC[C@H]1c1ncc(-c2ccc3cc(-c4ccc(-c5cnc([C@@H]6CCCN6C(=O)C6(NC(=O)OC)CCc7ccccc76)[nH]5)cc4)ccc3c2)[nH]1)C(C)C (some centres unmarked) [Example 196] | 0.036 nM | – | 0.001 to 0.99 nM | – | – | > 5 nM | 1 to 44 nM | 1 to 44 nM | –
COC(=O)N[C@H](C(=O)N1CCC[C@H]1c1ncc(-c2cc3c4c(c2)CCc2cc(-c5cnc([C@@H]6CCCN6C(=O)[C@@H](NC(=O)OC)C6CCOCC6)[nH]5)cc(c2-4)CC3)[nH]1)C(C)C [Example 23] | – | – | 0.001 to 0.99 nM | – | – | – | – | – | EC50 [2, 13]: 0.067 nM; EC50 [3, 17]: 0.001 to 0.99 nM; EC50 [5, 18]: 0.001 to 0.999 nM; EC50 [6, 19]: 0.001 to 0.999 nM
COC(=O)N[C@H](C(=O)N1CCC[C@H]1c1ncc(-c2ccc3cc(-c4ccc(-c5cnc([C@@H]6CCCN6C(=O)OC(C)(C)C)[nH]5)cc4)ccc3c2)[nH]1)C(C)C [Example 247] | 0.758 nM | – | 0.001 to 0.99 nM | – | – | > 5 nM | > 44 nM | 1 to 44 nM | –
COC(=O)N[C@H](C(=O)N1CCC[C@H]1c1ncc(-c2ccc3c(c2)C(F)(F)c2cc(-c4ccc5nc([C@@H]6[C@H]7CC[C@H](C7)N6C(=O)[C@H](NC(=O)OC)c6ccccc6)[nH]c5c4)ccc2-3)[nH]1)C1CCOCC1 [Example 56] | – | – | 0.001 to 0.99 nM | – | – | – | – | – | EC50 [2, 13]: 0.01 nM; EC50 [3, 14]: 0.001 to 0.99 nM; EC50 [5, 15]: 0.001 to 0.999 nM; EC50 [6, 16]: 0.001 to 0.999 nM
COC(=O)N[C@H](C(=O)N1CCC[C@H]1c1nc2c([nH]1)-c1ccc(-c3ccc4c(ccc5nc([C@@H]6CC7(CN6C(=O)[C@H](NC(=O)OC)c6ccccc6)OCCO7)[nH]c54)c3)cc1CC2)C(C)C [Example 366] | 0.075 nM | 0.001 to 0.99 nM | 0.001 to 0.99 nM | 0.001 to 0.999 nM | 0.001 to 0.999 nM | – | – | – | –
COC(=O)N[C@H](C(=O)N1CCC[C@H]1c1ncc(-c2ccc3c(c2)COc2c-3ccc3cc(-c4cnc([C@@H]5CCCN5C(=O)[C@@H](NC(=O)OC)[C@@H](C)OC)[nH]4)ccc23)[nH]1)C1CCOCC1 [Example 15] | – | – | 0.001 to 0.99 nM | – | – | – | – | – | EC50 [2, 13]: 0.026 nM; EC50 [3, 17]: 0.001 to 0.99 nM; EC50 [5, 18]: 0.001 to 0.999 nM; EC50 [6, 19]: 0.001 to 0.999 nM
COC(=O)N[C@H](C(=O)N1CC(F)(F)C[C@H]1c1ncc(-c2ccc(-c3ccc4cc(-c5cnc([C@@H]6CCCN6C(=O)[C@H](NC(=O)OC)c6ccccc6)[nH]5)ccc4c3)cc2)[nH]1)C(C)C [Example 232] | 0.004 nM | – | 0.001 to 0.99 nM | – | – | 0.001 to 0.99 nM | 0.001 to 0.999 nM | 0.001 to 0.999 nM | –
COC(=O)N[C@H](C(=O)N1CCC[C@H]1c1ncc(-c2ccc3cc(-c4ccc(-c5cnc([C@@H]6CC7(CC7)CN6C(=O)[C@H](NC(=O)OC)c6ccccc6)[nH]5)cc4)ccc3c2)[nH]1)C1CCOCC1 [Example 236] | 0.011 nM | – | 0.001 to 0.99 nM | – | – | 0.001 to 0.99 nM | 0.001 to 0.999 nM | 0.001 to 0.999 nM | –
COC(=O)N[C@H](C(=O)N1CC2(CC2)C[C@H]1c1ncc(-c2ccc3c(c2)C(F)(F)c2cc(-c4ccc5nc([C@@H]6[C@H]7CC[C@H](C7)N6C(=O)[C@H](c6ccccc6)N6CCOCC6)[nH]c5c4)ccc2-3)[nH]1)C(C)C [Example 97] | – | – | 0.001 to 0.99 nM | – | – | – | – | – | EC50 [2, 13]: 0.009 nM; EC50 [3, 14]: > 5 nM; EC50 [5, 15]: 1 to 44 nM; EC50 [6, 16]: 1 to 44 nM
COC(=O)N[C@H](C(=O)N1CCC[C@H]1c1nc2ccc(-c3ccc4c(c3)C(F)(F)c3cc(-c5c[nH]c([C@@H]6CCCN6C(=O)[C@@H](NC(=O)OC)C6CCOCC6)n5)ccc3-4)cc2[nH]1)C(C)C [Example 219] | 0.008 nM | – | 0.001 to 0.99 nM | – | – | 1 to 4.99 nM | 0.001 to 0.999 nM | 0.001 to 0.999 nM | –
COC(=O)N[C@H](C(=O)N1[C@@H]2CC[C@@H](C2)[C@H]1c1nc2ccc3cc(-c4ccc(-c5cnc([C@@H]6C[C@H]7C[C@H]7N6C(=O)[C@H](NC(=O)OC)c6ccccc6)[nH]5)cc4)ccc3c2[nH]1)C(C)C [Example 368] | 0.012 nM | 0.001 to 0.99 nM | 0.001 to 0.99 nM | 0.001 to 0.999 nM | 0.001 to 0.999 nM | – | – | – | –
COC(=O)N[C@H](C(=O)N1CCC[C@H]1c1ncc(-c2ccc3c(c2)C(F)(F)c2cc(-c4ccc5nc([C@@H]6CCCN6C(=O)[C@H](NC(=O)OC)c6ccccc6)[nH]c5c4)ccc2-3)[nH]1)C1CCOCC1 [Example 259] | 0.014 nM | – | 0.001 to 0.99 nM | – | – | 0.001 to 0.99 nM | 0.001 to 0.999 nM | 0.001 to 0.999 nM | –
COC(=O)N[C@H](C(=O)N1CCC[C@H]1c1ncc(-c2ccc3cc(-c4ccc5c(c4)CCc4nc([C@@H]6CCCN6C(=O)[C@@H](NC(=O)OC)C6CCOCC6)[nH]c4-5)ccc3c2)[nH]1)C(C)C [Example 222] | – | – | – | – | – | – | – | – | EC50 ([2]; read-out: 1b): 0.023 nM; EC50 ([3]; read-out: 3a, genotype 3a NS5A chimeric 1b Con1 replicon): 0.001 to 0.99 nM; EC50 ([4]; genotype 4a NS5A chimeric 1b Con1 replicon): 0.001 to 0.99 nM; EC50 ([5]; RLuc reporter): 0.001 to 0.999 nM; EC50 ([6]; genotype 1a H77 replicon, RLuc reporter): 0.001 to 0.999 nM
